How the values were obtained:
[1] = target: T1, human 15-LO (Homo sapiens, UniProt P16050); assay: Human Lysate 15-LO Assay (HUM15LO); type: biochemical; conditions: recombinant human 15-LO, 174 μM linoleic acid, 15 minutes at 4° C., 13-HODE quantitated
T1 construct: made in house; host or cells: Sf9 insect cells (baculovirus, Bac-to-Bac)
T1 sequence (P16050 1-662): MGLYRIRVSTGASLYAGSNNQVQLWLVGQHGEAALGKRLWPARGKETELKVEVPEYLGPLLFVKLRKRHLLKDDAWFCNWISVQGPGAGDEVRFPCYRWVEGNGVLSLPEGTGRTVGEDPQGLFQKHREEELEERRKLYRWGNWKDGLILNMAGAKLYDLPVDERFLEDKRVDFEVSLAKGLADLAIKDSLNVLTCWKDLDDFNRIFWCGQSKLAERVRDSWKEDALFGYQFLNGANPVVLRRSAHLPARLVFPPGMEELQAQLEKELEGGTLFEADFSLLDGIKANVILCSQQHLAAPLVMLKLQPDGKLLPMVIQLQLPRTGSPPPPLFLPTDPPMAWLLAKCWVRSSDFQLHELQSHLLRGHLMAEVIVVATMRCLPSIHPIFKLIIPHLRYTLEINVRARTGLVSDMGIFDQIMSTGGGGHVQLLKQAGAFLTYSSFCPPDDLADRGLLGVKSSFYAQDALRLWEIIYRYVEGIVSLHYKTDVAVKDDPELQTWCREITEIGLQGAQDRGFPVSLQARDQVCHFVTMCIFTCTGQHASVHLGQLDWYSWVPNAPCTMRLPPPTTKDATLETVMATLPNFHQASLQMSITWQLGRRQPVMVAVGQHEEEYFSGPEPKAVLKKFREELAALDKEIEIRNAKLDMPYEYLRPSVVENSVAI
Experimental: In the HUM15LO assay, a test compound of the present invention was incubated with 15-LO enzyme in the presence of the linoleic acid substrate. For example, a known amount of a test compound of the present invention, 100 μL of human 15-LO, and 174 μM linoleic acid in PBS containing 0.2% sodium cholate were incubated for 15 minutes at 4° C. The reaction was stopped with 100 μL of mobile phase and 10 μL of triethyl phosphite. […] 13-HODE was quantitated by comparing peak areas of individual samples with those from a standard curve generated using authentic 13-HODE. The test reaction is compared to a control reaction, which is identical to the test reaction except no test compound of the present invention is present Percent inhibition is calculated as the amount of 13-HODE produced by the test reaction divided by the amount of 13-HODE produced by the control reaction, expressed as a percent.
Human 15-LO was generated in a recombinant 15-lipoxygenase bacculovirus expression system, using Gibco/BRL/Life Technologies' Bac-to-Bac expression reagents; T4 DNA ligase, Kanamycin, Gentamicin, tetracycline, penicillin, streptomycin, Bluo-gal, IPTG, DH10Bac competent cells, SOC, LB medium, Sf-900 II SFM media, Sf9 insect cells, Cell Fectin, and EcoRI, BamHI and KpnI restriction enzymes.

[2] = target: T2, rabbit reticulocyte 15-LO (Oryctolagus cuniculus, UniProt P12530); assay: Rabbit Reticulocyte 15-LO Assay (H15LO); type: biochemical; conditions: 2 U rabbit reticulocyte 15-LO, 174 μM linoleic acid, 15 minutes at 4° C., 13-HODE quantitated
T2 construct: 15-LO is obtained from phenylhydrazine-treated rabbits and purified according to the method of Rapoport; from tissue; host or cells: reticulocytes of phenylhydrazine-treated rabbits
T2 sequence (P12530 1-663): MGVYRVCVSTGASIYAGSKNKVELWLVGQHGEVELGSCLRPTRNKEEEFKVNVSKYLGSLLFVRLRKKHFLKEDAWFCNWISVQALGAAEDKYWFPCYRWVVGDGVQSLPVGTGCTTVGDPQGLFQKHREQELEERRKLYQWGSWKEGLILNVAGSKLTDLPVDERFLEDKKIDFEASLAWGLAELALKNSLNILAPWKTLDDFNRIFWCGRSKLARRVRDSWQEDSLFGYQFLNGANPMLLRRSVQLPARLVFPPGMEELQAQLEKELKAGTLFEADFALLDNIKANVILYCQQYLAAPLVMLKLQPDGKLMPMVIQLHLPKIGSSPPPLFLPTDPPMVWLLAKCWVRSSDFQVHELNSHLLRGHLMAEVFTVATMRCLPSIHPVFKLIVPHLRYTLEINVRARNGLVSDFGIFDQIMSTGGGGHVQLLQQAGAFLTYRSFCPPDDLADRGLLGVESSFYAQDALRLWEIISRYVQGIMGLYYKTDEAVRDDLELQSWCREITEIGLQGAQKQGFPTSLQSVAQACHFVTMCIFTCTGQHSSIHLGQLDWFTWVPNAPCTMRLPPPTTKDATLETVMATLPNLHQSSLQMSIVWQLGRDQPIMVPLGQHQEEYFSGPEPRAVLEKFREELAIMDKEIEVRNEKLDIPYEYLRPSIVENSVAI
Experimental: In the H15LO assay, a test compound was incubated with 15-LO enzyme in the presence of the linoleic acid substrate. For example, 2 units (U) of rabbit reticulocyte 15-LO and 174 μM linoleic acid were incubated with a known amount of a test compound of the present invention for 15 minutes at 4° C. The total reaction volume was 100 μL in phosphate buffer saline (PBS) containing 0.2% sodium cholate. The reaction was stopped with 100 μL of mobile phase and […] of triethyl phosphite. […] 13-HODE was quantitated by comparing peak areas of individual samples with those from a standard curve generated using authentic 13-HODE.
15-LO is obtained from phenylhydrazine-treated rabbits and purified according to the method of Rapoport (Rapoport et al., European Journal of Biochemistry, 1979;96:545-561).

| IC50 [1] | IC50 [2] | Molecule |
| --- | --- | --- |
| 6 nM | 17 nM | CCCCCCCCCCCCOC(=O)NS(=O)(=O)Nc1cc(-c2cc3cc(F)c(F)cc3[nH]2)ccc1OC [Example 1, Carbamic Acid, [[[5-(5,6-difluoro-IH-indol-2-yl)-2-methoxyphenyl]amino]-sulfonyl]-, Dodecyl Ester] |
| 384 nM | – | COc1ccc(C(=O)Nc2ccc(F)c(F)c2)cc1NS(=O)(=O)NC(=O)OCCN1CCOCC1 [Example 2, Carbamic Acid, [[[5[[(3,4-difluorophenyl)amino]carbonyl]-2-methoxyphenyl]-amino]sulfonyl]-, 2-(4morpholinyl)ethyl ester] |
| 408 nM | – | COc1ccc(C(=O)Nc2ccc(F)c(F)c2)cc1NS(=O)(=O)NC(=O)OCCCN(C)C [Example 3, Carbamic Acid, [[(5-[[(3,4-diflu rophenyl)amino]carbonyl]-2-methoxyphenyl]amino]sulfonyl]-, 3-(dimethylamino)propyl Ester] |
| 144 nM | – | COc1ccc(C(=O)Nc2ccc(F)c(F)c2)cc1NS(=O)(=O)NC(=O)OCCN1CCCC1 [Example 4, Carbamic Acid, [[[5-[[(3,4-difluorophenyl)amino]carbonyl]-2-methoxyphenyl]amino]-suffonyl]-, 2-(1-pyrrolidinyl)ethyl ester] |
| 240 nM | – | COc1ccc(C(=O)Nc2ccc(F)c(F)c2)cc1NS(=O)(=O)NC(=O)OCCN(C)C [Example 5, Carbamic Acid, [[[5-[[(3,4-difluorophenyl)amino]carbonyl]-2-methoxyphenyl]amino]sulfonyl]-, 2-(dimethylamino)ethyl ester] |
| 79 nM | – | COc1ccc(C(=O)Nc2ccc(F)c(F)c2)cc1NS(=O)(=O)NC(=O)OCCc1cccs1 [Example 7, Carbamic Acid, [[[5-[[(3,4-difluorophenyl)amino]carbonyl]-2-methoxyphenyl]amino]sulfonyl]-, 2-(2-thienyl)ethyl ester] |
| 312 nM | – | CCS(=O)(=O)CCOC(=O)NS(=O)(=O)Nc1cc(C(=O)Nc2ccc(F)c(F)c2)ccc1OC [Example 8, Carbamic Acid, [[[5-[[(3,4-difluorophenyl)amino]carbonyl]-2-methoxyphenyl]amino]sulfonyl]-, 2-(ethylsulfonyl)ethyl ester] |
| 154 nM | – | COc1ccc(C(=O)Nc2ccc(F)c(F)c2)cc1NS(=O)(=O)NC(=O)OCCCBr [Example 9, Carbamic Acid, [[[5-[[(3,4-difluorophenyl)amino]carbonyl]-2-methoxyphenyl]amino]sulfonyl]-, 3-bromopropyl ester] |
| 30 nM | 12 nM | COc1ccc(-c2cc3cc(F)c(F)cc3[nH]2)cc1NS(=O)(=O)N(C)C(=O)OCCCOCc1ccccc1 [Example 13, Carbamic Acid, [[[5-(5,6-difluoro-IH-indol-2-yl)-2-methoxyphenyl]amino]-sulfonyl]methyl-, 3(phenylmethoxy)propyl ester] |
| 10 nM | 2 nM | COc1ccc(-c2cc3cc(F)c(F)cc3[nH]2)cc1NS(=O)(=O)NC(=O)OCC(=O)OCc1ccccc1 [Example 16, Acetic Acid, [[[[[[5-(5,6-difluoro-IH-indol-2-yl)-2-methoxyphenyl]amino]-sulfonyl]amino]carbonyl]oxy]-, phenylmethyl ester] |
| 37 nM | 10 nM | COc1ccc(C(=O)Nc2ccc(F)c(F)c2)cc1NS(=O)(=O)NC(=O)Nc1cc(Cl)cc(Cl)c1 [Example 17, Benzamide, 3-[[[[[(3,5-dichlorophenyl)amino]-carbonyl]amino]sulfonyl]-amino]-N-(3,4-difluorophenyl)-4-methoxy] |
| 142 nM | – | COc1ccc(C(=O)Nc2ccc(F)c(F)c2)cc1NS(=O)(=O)NC(=O)Nc1ccccc1 [Example 18, Benzamide, N-(3,4-difluorophenyl)-4-methoxy-3-[[[[(phenylamino)carbonyl]-amino]sulfonyl]amino]] |
| 339 nM | – | CCOC(=O)NS(=O)(=O)Nc1cc(C(=O)Nc2ccc(F)c(F)c2)ccc1OC [Example 19, Carbamic Acid, [[[5-[[(3,4-difluorophenyl)amino]carbonyl]-2-methoxyphenyl]amino]sulfonyl]-, Ethyl Ester] |
| 1050 nM | – | COc1ccc(NS(=O)(=O)NC(=O)Nc2cc(C(=O)Nc3ccc(F)c(F)c3)ccc2OC)cc1 [Example 20, Benzamide, N-(3,4-difluorophenyl)-4-methoxy-3-[[[[[(4-methoxyphenyl)-amino]sulfonyl]amino]carbonyl]amino]] |
| 630 nM | – | CCOC(=O)NS(=O)(=O)Nc1cc(-c2cc3ccccc3[nH]2)ccc1OC [Example 26, Carbamic Acid, [[[5-(IH-indol-2-yl)-2-methoxyphenyl]amino]sulfonyl]-, Ethyl Ester] |
| – | 23 nM | COc1ccc(-c2cc3cc(F)c(F)cc3[nH]2)cc1NS(=O)(=O)NC(=O)OC(C)(C)C [Example 53, Carbamic Acid, [[[5-(5,6-difluoro-indol-2-yl)-2-methoxyphenyl]amino]-sulfonyl]-, 1,1-dimethylethyl ester] |
| 25 nM | – | COc1ccc(C(=O)Nc2ccc(F)c(F)c2)cc1NS(=O)(=O)NC(=O)Nc1cccc([N+](=O)[O-])c1 [Example 60, Benzamide, N-(3,4-difluorophenyl)-4-methoxy-3-[[[[[(3-nitrophenyl) -amino]carbonyl]amino]sulfonyl]amino]] |
| 173 nM | – | COc1ccc(C(=O)Nc2ccc(F)c(F)c2)cc1NS(=O)(=O)NC(=O)Nc1cc(C(F)(F)F)cc(C(F)(F)F)c1 [Example 62, Benzamide, 3-[[[[[[3,5-bis(trifluoromethyl)phenyl]amino]-carbonyl]amino]-sulfonyl]amino]-N-(3,4-difluorophenyl)-4-methoxy] |
| 182 nM | – | COc1ccc(C(=O)Nc2ccc(F)c(F)c2)cc1NS(=O)(=O)NC(=O)Nc1ccccc1 [Example 67, Benzamide, N-(3,4-difluorophenyl)-4-methoxy-3-[[[[(phenylamino)carbonyl]-amino]sulfonyl]amino]] |

| Molecule | IC50 [1] | IC50 [2] |
| --- | --- | --- |
| COc1ccc(C(=O)Nc2ccc(F)c(F)c2)cc1NS(=O)(=O)NC(=O)Nc1ccc(N)cc1 [Example 63, Benzamide, 3-[[[[[(4-aminophenyl)amino]carbonyl]amino]sulfonyl]amino]-N-(3,4-difluorophenyl)-4-methoxy-, mono(trifluoroacetate)] | 214 nM | – |
| Carbamic Acid, [[[5-[[(3,4-difluorophenyl)amino]carbonyl]-2-methoxyphenyl]amino]sulfonyl]methyl-, Ethyl ester [Example 69] | 154 nM | – |

Source: patent publication US6906094B2, “1,2,4-tribsubstituted benzenes as inhibitors of 15-lipoxygenase” (Warner-Lambert Company, priority 2000, dated 2005)
